Patent publication US9493487B2, “3-(1H-imidazo[4,5-C]pyridin-2-YL)-1H-pyrazolo[3,4-B]pyridine and therapeutic uses thereof” (Samumed, LLC, priority 2014, dated 2016)

System: Wnt activity (Sp5-Luc reporter, SW480 colon carcinoma cells)
Test: Sp5-Luc Wnt reporter gene assay in SW480 colon carcinoma cells
Type: cell-based
Conditions: Homo sapiens; SW480 cells stably expressing Sp5-Luc reporter; 42 h incubation; BrightGlo luminescence normalized to DMSO
Text: The screening assay for Wnt activity is described as follows. Reporter cell lines can be generated by stably transducing cancer cell lines (e.g., colon cancer) or primary cells (e.g., IEC-6 intestinal cells) with a lentiviral construct that includes a Wnt-responsive promoter driving expression of the firefly luciferase gene.
SW480 colon carcinoma cells were transduced with a lentiviral vector expressing luciferase with a human Sp5 promoter consisting of a sequence of eight TCF/LEF binding sites. SW480 cells stably expressing the Sp5-Luc reporter gene and a hygromycin resistance gene were selected by treatment with 150 μg/ml of hygromycin for 7 days. These stably transduced SW480 cells were expanded in cell culture and used for all further screening activities. For Sp5-Luc reporter gene assays, the cells were plated at 10,000 cells/well in 96-well plates with growth medium containing 10% fetal calf serum and incubated overnight at 37° C. and 5% CO2. Each compound was dissolved in DMSO as a 10 mM stock in standard j-vials and used to prepare compound source plates in dose-response format with 3-fold serial dilutions and a 10 mM top concentration. Compound transfer from serially diluted source plates to assay plates containing the cells was accomplished using a pintool (Multimek 96, Beckman equipped with V&P Scientific FP1S50H pins) based liquid handling protocol. This protocol used a slotted pin to transfer 50 nl of compound from a source plate well to an assay plate well containing 50 μl of cells in growth medium. […] Control wells received 50 nl of DMSO treatment for normalization and calculating IC50 values. The treated cells were incubated at 37° C. and 5% CO2 for an additional forty-two hours. Following incubation, the growth medium was removed and 50 μl of BrightGlo luminescence reagent (Promega) was added to each well of the 96-well assay plates. The plates were placed on an orbital shaker for 5 min and then luminescence was quantified on the Victor3 (Perkin Elmer) plate reader. Readings were normalized to DMSO only treated cells, and normalized activities were utilized for IC50 calculations using the dose-response log (inhibitor) vs. response-variable slope (four parameters) nonlinear regression feature available in GraphPad Prism 5.0 or 6.0.

| SMILES | IC50 [nM] |
| --- | --- |
| CN1CCN(c2nccc3[nH]c(-c4n[nH]c5ncc(-c6cncc(NC(=O)C7CCCC7)c6)cc45)nc23)CC1 [Compound 229, N-(5-(3-(4-(4-Methylpiperazin-1-yl)-1H-imidazo[4,5-c]pyridin-2-yl)-1H-pyrazolo[3,4-b]pyridin-5-yl)pyridin-3-yl)cyclopentanecarboxamide] | 1550 |
| CN1CCN(c2nccc3[nH]c(-c4n[nH]c5ncc(-c6cncnc6)cc45)nc23)CC1 [Compound 234, 3-(4-(4-Methylpiperazin-1-yl)-1H-imidazo[4,5-c]pyridin-2-yl)-5-(pyrimidin-5-yl)-1H-pyrazolo[3,4-b]pyridine] | 179 |
| CC(C)CC(=O)Nc1cncc(-c2cnc3[nH]nc(-c4nc5c(-c6cc(F)cc(OCCN7CCCC7)c6)nccc5[nH]4)c3c2)c1 [Compound 1236, N-(5-(3-(4-(3-Fluoro-5-(2-(pyrrolidin-1-yl)ethoxy)phenyl)-1H-imidazo[4,5-c]pyridin-2-yl)-1H-pyrazolo[3,4-b]pyridin-5-yl)pyridin-3-yl)-3-methylbutanamide] | 445 |
| Fc1cccc(-c2nccc3[nH]c(-c4n[nH]c5ncc(-c6ccccn6)cc45)nc23)c1 [Compound 901, 3-(4-(3-Fluorophenyl)-1H-imidazo[4,5-c]pyridin-2-yl)-5-(pyridin-2-yl)-1H-pyrazolo[3,4-b]pyridine] | > 10000 |
| COc1cc(F)cc(-c2nccc3[nH]c(-c4n[nH]c5ncc(-c6cncc(NC(=O)CC(C)C)c6)cc45)nc23)c1 [Compound 1324, N-(5-(3-(4-(3-Fluoro-5-methoxyphenyl)-1H-imidazo[4,5-c]pyridin-2-yl)-1H-pyrazolo[3,4-b]pyridin-5-yl)pyridin-3-yl)-3-methylbutanamide] | 85 |
| c1cncc(-c2cnc3[nH]nc(-c4nc5c(-c6cccnc6)nccc5[nH]4)c3c2)c1 [Compound 82, 5-(Pyridin-3-yl)-3-(4-(pyridin-3-yl)-1H-imidazo[4,5-c]pyridin-2-yl)-1H-pyrazolo[3,4-b]pyridine] | 41.9 |
| Fc1ccc(-c2nccc3[nH]c(-c4n[nH]c5ncc(-c6cncnc6)cc45)nc23)cc1 [Compound 52, 3-(4-(4-Fluorophenyl)-1H-imidazo[4,5-c]pyridin-2-yl)-5-(pyrimidin-5-yl)-1H-pyrazolo[3,4-b]pyridine] | 155 |
| CCCCC(=O)Nc1cncc(-c2cnc3[nH]nc(-c4nc5c(-c6ccoc6)nccc5[nH]4)c3c2)c1 [Compound 278, N-(5-(3-(4-(Furan-3-yl)-1H-imidazo[4,5-c]pyridin-2-yl)-1H-pyrazolo[3,4-b]pyridin-5-yl)pyridin-3-yl)pentanamide] | 56 |
| Fc1cccc(-c2nccc3[nH]c(-c4n[nH]c5ncc(-c6cncc(OCCN7CCCC7)c6)cc45)nc23)c1 [Compound 894, 3-(4-(3-Fluorophenyl)-1H-imidazo[4,5-c]pyridin-2-yl)-5-(5-(2-(pyrrolidin-1-yl)ethoxy)pyridin-3-yl)-1H-pyrazolo[3,4-b]pyridine] | 1500 |
| Fc1cccc(-c2nccc3[nH]c(-c4n[nH]c5ncc(C6=CCNCC6)cc45)nc23)c1 [Compound 886, 3-(4-(3-Fluorophenyl)-1H-imidazo[4,5-c]pyridin-2-yl)-5-(1,2,3,6-tetrahydropyridin-4-yl)-1H-pyrazolo[3,4-b]pyridine] | 3700 |
| CC(C)CC(=O)Nc1cncc(-c2cnc3[nH]nc(-c4nc5c(-c6cc(O)cc(F)c6)nccc5[nH]4)c3c2)c1 [Compound 1280, N-(5-(3-(4-(3-Fluoro-5-hydroxyphenyl)-1H-imidazo[4,5-c]pyridin-2-yl)-1H-pyrazolo[3,4-b]pyridin-5-yl)pyridin-3-yl)-3-methylbutanamide] | 90 |
| O=C(CC1CCCCC1)Nc1cncc(-c2cnc3[nH]nc(-c4nc5c(-c6cccc(F)c6)nccc5[nH]4)c3c2)c1 [Compound 899, 2-Cyclohexyl-N-(5-(3-(4-(3-fluorophenyl)-1H-imidazo[4,5-c]pyridin-2-yl)-1H-pyrazolo[3,4-b]pyridin-5-yl)pyridin-3-yl)acetamide] | 1970 |
| O=C(Nc1cncc(-c2cnc3[nH]nc(-c4nc5c(-c6ccncc6)nccc5[nH]4)c3c2)c1)C1CCCCC1 [Compound 126, N-(5-(3-(4-(Pyridin-4-yl)-1H-imidazo[4,5-c]pyridin-2-yl)-1H-pyrazolo[3,4-b]pyridin-5-yl)pyridin-3-yl)cyclohexanecarboxamide] | 1120 |
| Fc1cccc(-c2nccc3[nH]c(-c4n[nH]c5ncc(-c6cncc(OCc7ccccc7)c6)cc45)nc23)c1 [Compound 898, 5-(5-(Benzyloxy)pyridin-3-yl)-3-(4-(3-fluorophenyl)-1H-imidazo[4,5-c]pyridin-2-yl)-1H-pyrazolo[3,4-b]pyridine] | 3260 |
| CCNCc1cncc(-c2cnc3[nH]nc(-c4nc5c(-c6ccoc6)nccc5[nH]4)c3c2)c1 [Compound 266, N-((5-(3-(4-(Furan-3-yl)-1H-imidazo[4,5-c]pyridin-2-yl)-1H-pyrazolo[3,4-b]pyridin-5-yl)pyridin-3-yl)methyl)ethanamine] | 339 |
| Oc1cncc(-c2cnc3[nH]nc(-c4nc5c(-c6cccc(F)c6)nccc5[nH]4)c3c2)c1 [Compound 897, 5-(3-(4-(3-Fluorophenyl)-1H-imidazo[4,5-c]pyridin-2-yl)-1H-pyrazolo[3,4-b]pyridin-5-yl)pyridin-3-ol] | 23 |
| Fc1cccc(-c2nccc3[nH]c(-c4n[nH]c5ncc(-c6cncc(CN7CCC(F)(F)C7)c6)cc45)nc23)c1 [Compound 25, 5-(5-((3,3-Difluoropyrrolidin-1-yl)methyl)pyridin-3-yl)-3-(4-(3-fluorophenyl)-1H-imidazo[4,5-c]pyridin-2-yl)-1H-pyrazolo[3,4-b]pyridine] | 33.9 |
| CC(C)C(=O)Nc1cncc(-c2cnc3[nH]nc(-c4nc5c(N6CCN(C)CC6)nccc5[nH]4)c3c2)c1 [Compound 217, N-(5-(3-(4-(4-Methylpiperazin-1-yl)-1H-imidazo[4,5-c]pyridin-2-yl)-1H-pyrazolo[3,4-b]pyridin-5-yl)pyridin-3-yl)isobutyramide] | 673 |
| c1cncc(-c2nccc3[nH]c(-c4n[nH]c5ncc(-c6cncc(CN7CCCCC7)c6)cc45)nc23)c1 [Compound 93, 5-(5-(Piperidin-1-ylmethyl)pyridin-3-yl)-3-(4-(pyridin-3-yl)-1H-imidazo[4,5-c]pyridin-2-yl)-1H-pyrazolo[3,4-b]pyridine] | 3880 |
| Fc1cccc(-c2nccc3[nH]c(-c4n[nH]c5ncc(-c6cncc(OC7CCCCC7)c6)cc45)nc23)c1 [Compound 891, 5-(5-(Cyclohexyloxy)pyridin-3-yl)-3-(4-(3-fluorophenyl)-1H-imidazo[4,5-c]pyridin-2-yl)-1H-pyrazolo[3,4-b]pyridine] | 935 |
| CS(=O)(=O)NCc1cc(F)cc(-c2nccc3[nH]c(-c4n[nH]c5ncc(-c6cncc(CNCc7ccccc7)c6)cc45)nc23)c1 [Compound 413, N-(3-(2-(5-(5-((Benzylamino)methyl)pyridin-3-yl)-1H-pyrazolo[3,4-b]pyridin-3-yl)-1H-imidazo[4,5-c]pyridin-4-yl)-5-fluorobenzyl)methanesulfonamide] | 143 |
| CC(C)CC(=O)Nc1cncc(-c2cnc3[nH]nc(-c4nc5c(-c6cc(F)cc(OCCN(C)C)c6)nccc5[nH]4)c3c2)c1 [Compound 1192, N-(5-(3-(4-(3-(2-(Dimethylamino)ethoxy)-5-fluorophenyl)-1H-imidazo[4,5-c]pyridin-2-yl)-1H-pyrazolo[3,4-b]pyridin-5-yl)pyridin-3-yl)-3-methylbutanamide] | 400 |
| Cc1cn(-c2nccc3[nH]c(-c4n[nH]c5ncc(-c6cncc(NC(=O)C(C)(C)C)c6)cc45)nc23)cn1 [Compound 190, N-(5-(3-(4-(4-Methyl-1H-imidazol-1-yl)-1H-imidazo[4,5-c]pyridin-2-yl)-1H-pyrazolo[3,4-b]pyridin-5-yl)pyridin-3-yl)pivalamide] | 1580 |
| CCCC(=O)Nc1cncc(-c2cnc3[nH]nc(-c4nc5c(-c6cc(F)cc(CNS(C)(=O)=O)c6)nccc5[nH]4)c3c2)c1 [Compound 407, N-(5-(3-(4-(3-Fluoro-5-(methylsulfonamidomethyl)phenyl)-1H-imidazo[4,5-c]pyridin-2-yl)-1H-pyrazolo[3,4-b]pyridin-5-yl)pyridin-3-yl)butyramide] | 74.1 |
